Measurements taken from ChEMBL document CHEMBL1201862, “PubChem BioAssay data set” (2004).
Calls of active or inactive are those of the source.

What was measured:
[1] = control 3'UTR Renilla luciferase suppression, dose response, counter-screen for Shn3 inhibitor project, cell-based, Clone20-Shn3RL, cherry-picked (AID 624133); format: functional
BJ = experiment: cells; format: functional, cell-based; conditions: Homo sapiens
[2] = Shn3 3'UTR reporter inhibitors, dose response, cell-based, Clone20 osteoblasts, firefly luciferase, cherry-picked (AID 624132); format: functional;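 note: firefly luciferase luminescence from reporter carrying the Shn3 3'UTR in osteoblasts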
[3] = cytotoxicity toward DRD oncogenic fibroblasts, dose response, cell-based, non-viral oncogenic, luminescence (AID 1934); format: functional; conditions: Homo sapiens
[4] = HepG2 cell cytotoxicity, dose response, cytotoxicity control for Shn3 inhibitor project, CellTiter-Glo, cherry-picked (AID 624134); format: functional, cell-based
[5] = target: Sphingosine 1-phosphate receptor 4 (Homo sapiens, UniProt O95977); experiment: Fluorescence dose response cell-based high throughput screening assay for antagonists of the Sphingosine 1-Phosphate Receptor 4 (S1P4). [Related pubchem assays: 1524 (Confirmation in triplicates.), 1510 (Primary screen.)]; format: functional
Chain of Sphingosine 1-phosphate receptor 4 (O95977 whole entry): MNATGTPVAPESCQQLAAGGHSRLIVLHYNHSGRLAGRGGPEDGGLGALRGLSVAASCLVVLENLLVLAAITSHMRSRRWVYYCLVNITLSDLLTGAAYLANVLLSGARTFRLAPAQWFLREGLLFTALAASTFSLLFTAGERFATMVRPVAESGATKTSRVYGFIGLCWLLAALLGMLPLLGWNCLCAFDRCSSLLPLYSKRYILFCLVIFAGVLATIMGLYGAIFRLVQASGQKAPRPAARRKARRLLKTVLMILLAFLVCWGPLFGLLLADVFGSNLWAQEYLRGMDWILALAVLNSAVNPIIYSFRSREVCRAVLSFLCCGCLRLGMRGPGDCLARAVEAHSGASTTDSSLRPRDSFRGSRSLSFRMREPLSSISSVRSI

[6] = HEp-2 cell cytotoxicity, dose response, cytotoxicity control for RSV inhibitor project, HTS (AID 2410); format: functional; conditions: human respiratory syncytial virus
[7] = target: T1, Sentrin-specific protease 8 (Homo sapiens, UniProt Q96LD8); experiment: SENP8 protease inhibitors, SAR follow-up, biochemical, luminescence (AID 504501); format: functional
T1 sequence (Q96LD8 whole entry): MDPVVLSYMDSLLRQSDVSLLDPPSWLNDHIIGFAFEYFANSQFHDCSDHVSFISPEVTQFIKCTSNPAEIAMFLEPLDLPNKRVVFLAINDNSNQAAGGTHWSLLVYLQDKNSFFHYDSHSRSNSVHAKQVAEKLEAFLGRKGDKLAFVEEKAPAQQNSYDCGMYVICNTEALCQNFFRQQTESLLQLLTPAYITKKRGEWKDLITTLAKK

Vero [8] = experiment: cells; format: functional, cell-based; conditions: Chlorocebus sabaeus
[9] = target: RNA-editing ligase 1, mitochondrial (Trypanosoma brucei brucei, UniProt P86926); experiment: TbREL1 ligase inhibitors, dose response, biochemical, fluorescence, Trypanosoma brucei (AID 1117295); format: functional
Chain of RNA-editing ligase 1, mitochondrial (P86926 whole entry): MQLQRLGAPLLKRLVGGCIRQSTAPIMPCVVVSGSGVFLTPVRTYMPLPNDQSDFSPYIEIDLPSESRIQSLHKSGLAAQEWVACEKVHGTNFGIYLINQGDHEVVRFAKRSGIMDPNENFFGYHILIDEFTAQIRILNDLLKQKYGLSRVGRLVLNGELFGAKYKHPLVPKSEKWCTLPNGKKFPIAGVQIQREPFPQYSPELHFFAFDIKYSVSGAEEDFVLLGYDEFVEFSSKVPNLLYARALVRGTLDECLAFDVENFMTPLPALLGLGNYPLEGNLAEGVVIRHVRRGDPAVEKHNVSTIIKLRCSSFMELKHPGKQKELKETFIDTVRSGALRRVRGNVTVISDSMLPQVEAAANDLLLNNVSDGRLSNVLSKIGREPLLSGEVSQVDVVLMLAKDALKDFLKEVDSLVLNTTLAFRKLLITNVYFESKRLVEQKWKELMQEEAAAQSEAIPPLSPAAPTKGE

Vero [10] = experiment: Vero cell cytotoxicity, cytotoxicity control for flavivirus capping enzyme inhibitors (AID 588742); format: functional; conditions: Chlorocebus sabaeus
Cysteine protease ATG4B = target: T2, Cysteine protease ATG4B (Homo sapiens, UniProt Q9Y4P1); format: functional;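 note: Fluorescence-based dose-response confirmation assay measuring inhibition of ATG4B activity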
T2 sequence (Q9Y4P1 whole entry): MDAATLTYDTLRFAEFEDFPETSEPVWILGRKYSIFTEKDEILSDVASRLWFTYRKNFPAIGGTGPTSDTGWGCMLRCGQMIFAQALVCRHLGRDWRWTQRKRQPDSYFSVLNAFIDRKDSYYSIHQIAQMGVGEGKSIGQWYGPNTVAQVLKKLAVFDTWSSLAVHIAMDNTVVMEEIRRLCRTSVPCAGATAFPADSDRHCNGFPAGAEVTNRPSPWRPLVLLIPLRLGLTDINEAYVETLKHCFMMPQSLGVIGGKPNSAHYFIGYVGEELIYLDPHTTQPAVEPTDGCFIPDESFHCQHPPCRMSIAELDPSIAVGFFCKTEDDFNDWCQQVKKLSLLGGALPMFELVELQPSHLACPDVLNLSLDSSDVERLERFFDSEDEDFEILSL

[11] = target: Dual specificity tyrosine-phosphorylation-regulated kinase 1A (Rattus norvegicus, UniProt Q63470); format: biochemical, Homo sapiens
Phospholipase A2 = Phospholipase A2 (Homo sapiens, UniProt P04054); format: functional;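 note: confirmatory dose-response counterscreen on phospholipase A2, testing hits that came from an ultra-high-throughput screen for ATG4B inhibitors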
Chain of Phospholipase A2 (P04054 whole entry): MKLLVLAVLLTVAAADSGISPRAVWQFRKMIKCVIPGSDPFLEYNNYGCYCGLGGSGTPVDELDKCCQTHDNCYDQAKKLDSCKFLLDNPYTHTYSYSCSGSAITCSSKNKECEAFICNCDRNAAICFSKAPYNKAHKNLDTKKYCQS

[12] = target: T3, 1-phosphatidylinositol 4,5-bisphosphate phosphodiesterase beta-3 (Homo sapiens, UniProt Q01970); experiment: Fluorescence-based biochemical high throughput dose response assay to identify inhibitors of phospholipase C isozymes (PLC-B3).
T3 sequence (Q01970 whole entry): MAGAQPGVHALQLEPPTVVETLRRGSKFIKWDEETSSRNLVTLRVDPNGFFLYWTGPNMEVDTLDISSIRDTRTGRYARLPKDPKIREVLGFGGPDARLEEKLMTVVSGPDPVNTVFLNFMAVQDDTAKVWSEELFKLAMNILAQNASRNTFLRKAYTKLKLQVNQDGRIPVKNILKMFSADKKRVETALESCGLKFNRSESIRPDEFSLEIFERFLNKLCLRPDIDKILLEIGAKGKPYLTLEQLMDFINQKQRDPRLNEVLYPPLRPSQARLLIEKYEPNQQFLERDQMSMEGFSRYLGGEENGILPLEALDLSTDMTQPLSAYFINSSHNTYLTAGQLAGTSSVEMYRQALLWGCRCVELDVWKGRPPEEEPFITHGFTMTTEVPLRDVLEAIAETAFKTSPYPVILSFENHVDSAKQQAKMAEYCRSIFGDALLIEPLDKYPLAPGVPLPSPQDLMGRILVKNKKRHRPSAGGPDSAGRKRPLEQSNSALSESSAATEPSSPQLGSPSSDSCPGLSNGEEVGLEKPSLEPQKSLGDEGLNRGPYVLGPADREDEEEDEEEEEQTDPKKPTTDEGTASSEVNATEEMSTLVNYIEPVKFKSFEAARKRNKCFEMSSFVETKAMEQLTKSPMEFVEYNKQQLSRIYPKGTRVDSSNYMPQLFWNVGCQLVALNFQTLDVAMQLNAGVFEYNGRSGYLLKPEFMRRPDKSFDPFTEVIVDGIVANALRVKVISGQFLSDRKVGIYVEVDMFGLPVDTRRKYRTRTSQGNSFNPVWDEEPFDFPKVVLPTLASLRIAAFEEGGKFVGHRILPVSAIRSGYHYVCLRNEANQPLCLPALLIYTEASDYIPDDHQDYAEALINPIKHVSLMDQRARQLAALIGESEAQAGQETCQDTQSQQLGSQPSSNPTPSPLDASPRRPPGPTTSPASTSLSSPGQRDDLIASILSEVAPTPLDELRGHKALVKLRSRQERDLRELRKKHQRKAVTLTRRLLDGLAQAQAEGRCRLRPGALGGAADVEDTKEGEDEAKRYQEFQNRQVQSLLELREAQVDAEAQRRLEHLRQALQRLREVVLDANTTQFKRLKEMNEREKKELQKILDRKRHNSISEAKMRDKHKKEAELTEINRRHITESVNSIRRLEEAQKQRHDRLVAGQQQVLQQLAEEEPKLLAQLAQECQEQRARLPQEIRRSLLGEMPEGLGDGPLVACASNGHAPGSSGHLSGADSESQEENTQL

[13] = growth suppression of beta-catenin-knockout colon cells, dose response, cell-based, HCT116, human colon tumor (AID 1045); format: functional;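 note: HCT116 colon tumor cells with beta catenin knocked out; cells exposed to compound for 60 hours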

## COC(=O)C[C@]1(C(=O)OC)CN(C#N)N(c2ccc(Cl)cc2)C12c1ccccc1-c1ccccc12
[1]
  AC50: 1.67 µM (active)
BJ
  EC50: 2.7 µM (active)
[2]
  AC50: 1.88 µM (active)
[3]
  EC50: 3.62 µM (active)
[4]
  AC50: 4.76 µM (active)
[5]
  IC50: 0.341 µM (active)

## O=C(Nc1ccc(C#Cc2ccccc2)cc1)C1CC1
cells
  IC50: 7.09 µM (active)
[6]
  CC50: 26.9 µM (active)
[7]
  IC50: > 99 µM (inactive)
Vero [8]
  IC50: > 12.5 µM (active)

## CCCCn1c(NC(=O)c2ccco2)c(C(=O)OCC)c2nc3ccccc3nc21
[9]
  IC50: 21.8 µM (inactive)
Vero [10]
  CC50: > 40 µM (active)

## Cc1ccccc1NC1=C/C(=N\S(=O)(=O)c2ccc(C(=O)O)cc2)c2ccccc2C1=O
Cysteine protease ATG4B
  IC50: 5.85 µM (active)
[11]
  AC50: 4.11 µM (active)
Phospholipase A2
  IC50: 15.4 µM (active)
[12]
  IC50: > 122 µM (inactive)

## Cc1ccc(NC2=C/C(=N/S(=O)(=O)c3cccs3)c3ccccc3C2=O)cc1
[13]
  EC50: 2.82 µM (active)
